Active and inactive are the calls of the source. No cut-off for these calls is given here.

Among the data in ChEMBL document CHEMBL2010722, “Structure-activity relationship study of beta-carboline derivatives as haspin kinase inhibitors” (Bioorg Med Chem Lett, 2012) are IC50 and inhibition values, retold here.

The target of assay [1] is T1, Dual specificity tyrosine-phosphorylation-regulated kinase 2 (Homo sapiens, UniProt Q92630).
T1 sequence (Q92630 whole entry): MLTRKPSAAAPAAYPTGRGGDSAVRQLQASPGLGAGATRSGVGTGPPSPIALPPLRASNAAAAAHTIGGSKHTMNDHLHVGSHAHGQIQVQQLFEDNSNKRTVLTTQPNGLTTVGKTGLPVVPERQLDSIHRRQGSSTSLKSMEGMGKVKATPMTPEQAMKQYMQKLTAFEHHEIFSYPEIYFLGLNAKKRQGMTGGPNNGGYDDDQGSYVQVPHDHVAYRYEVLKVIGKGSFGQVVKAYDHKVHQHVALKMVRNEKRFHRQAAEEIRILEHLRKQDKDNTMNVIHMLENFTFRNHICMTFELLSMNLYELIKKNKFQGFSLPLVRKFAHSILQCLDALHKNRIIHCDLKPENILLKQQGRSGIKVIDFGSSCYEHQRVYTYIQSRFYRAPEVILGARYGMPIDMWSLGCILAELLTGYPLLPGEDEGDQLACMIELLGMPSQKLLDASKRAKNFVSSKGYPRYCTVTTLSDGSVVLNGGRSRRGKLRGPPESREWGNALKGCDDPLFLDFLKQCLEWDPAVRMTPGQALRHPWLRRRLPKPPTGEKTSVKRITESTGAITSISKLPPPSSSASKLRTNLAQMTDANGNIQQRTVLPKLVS

The target in assay [2] is T2, Serine/threonine-protein kinase haspin (Homo sapiens, UniProt Q8TF76).
T2 sequence (Q8TF76 whole entry): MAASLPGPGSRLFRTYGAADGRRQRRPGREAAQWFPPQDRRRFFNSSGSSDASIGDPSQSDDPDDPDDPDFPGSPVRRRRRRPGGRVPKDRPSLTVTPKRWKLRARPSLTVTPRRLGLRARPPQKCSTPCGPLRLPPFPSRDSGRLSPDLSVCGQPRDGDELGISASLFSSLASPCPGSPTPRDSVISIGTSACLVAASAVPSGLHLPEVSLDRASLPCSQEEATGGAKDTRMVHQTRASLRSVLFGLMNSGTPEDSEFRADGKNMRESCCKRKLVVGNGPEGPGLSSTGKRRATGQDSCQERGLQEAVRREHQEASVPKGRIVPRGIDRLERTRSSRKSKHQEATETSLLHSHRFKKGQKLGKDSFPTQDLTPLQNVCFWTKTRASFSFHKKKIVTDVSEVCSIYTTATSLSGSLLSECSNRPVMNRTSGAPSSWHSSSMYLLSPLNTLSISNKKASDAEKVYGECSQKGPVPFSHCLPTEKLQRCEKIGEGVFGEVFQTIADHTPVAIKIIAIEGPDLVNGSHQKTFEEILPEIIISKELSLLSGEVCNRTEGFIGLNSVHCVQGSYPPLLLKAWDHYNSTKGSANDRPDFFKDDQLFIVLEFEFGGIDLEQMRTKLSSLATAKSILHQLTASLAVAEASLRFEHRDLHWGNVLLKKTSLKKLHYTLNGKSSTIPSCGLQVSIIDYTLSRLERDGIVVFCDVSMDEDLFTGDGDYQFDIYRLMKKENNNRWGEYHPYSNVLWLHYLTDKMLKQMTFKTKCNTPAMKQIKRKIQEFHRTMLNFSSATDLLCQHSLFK

Assay [3] concerns the target T1, Dual specificity tyrosine-phosphorylation-regulated kinase 2. The assay is described as follows: Inhibition of DYRK2.
Assay [4] concerns the target Serine/threonine-protein kinase haspin (Homo sapiens) (UniProt Q8TF76). The assay is described as follows: Inhibition of human recombinant N-terminal MBP-tagged haspin kinase expressed in Escherichia coli DE3 at 10 uM after 10 mins by TR-FRET assay. (In general: In TR-FRET formats the signal depends on donor and acceptor labels being close together.)

As for `CCc1nccc2c3ccc(OC)cc3n(CCCCN)c12`, the values for the IC50 in assay [1] and in assay [2] were above 10 µM and 0.19 µM, respectively.

Turning to `Cc1nccc2c3ccc(NS(C)(=O)=O)cc3n(CCCCN)c12`, the IC50 in assay [1] is above 10 µM; in assay [2], 0.69 µM.

Turning to `COc1ccc2c3ccnc(C)c3n(CCCCN)c2c1Cl`, the figures for the IC50 in assay [1] and in assay [2] were 8 µM and 0.83 µM, respectively.

In the case of `NCCCCn1c2cc(O)ccc2c2ccnc(C(F)(F)F)c21`, the values for the IC50 in assay [1] and in assay [2] were 8.5 µM and 0.22 µM, respectively.

Take `Cc1[nH]ccc2c1[nH]c1cc(=O)ccc12` [HARMOL]: the IC50 was determined as 0.77 µM in assay [2] and 1.5 µM in assay [3].

As for `Cc1nccc2c3ccc(F)cc3n(CCCCN)c12`, the IC50 in assay [1] was above 10 µM; in assay [2], 0.58 µM.

Take `COc1ccc2c3ccnc(C(C)C)c3n(CCCCN)c2c1`: the IC50 in assay [1] was above 10 µM; in assay [2] it was 0.46 µM.

For the compound `COc1ccc2c3ccnc(C)c3n(CCCCN)c2c1`, the IC50 in assay [1] was above 10 µM; in assay [2], 0.17 µM.

For `COc1ccc2c3ccnc(C)c3n(CCCCN(C)C)c2c1`, the results for the IC50 in assay [1] and in assay [2] were above 10 µM and 0.47 µM, respectively.

For the compound `COc1cccc2c1c1ccnc(C)c1n2CCCCN`, the IC50 is 7 µM in assay [1] and 2.7 µM in assay [2].

As for `Cc1nccc2c3cc4c(cc3n(CCCCN)c12)OCO4`, the IC50 in assay [1] was found to be 4.8 µM; in assay [2] it was 0.5 µM.

`COc1ccc2c(c1)c1ccnc(C)c1n2CCCCN`: the IC50 came out at 4.9 µM in assay [1] and 2.4 µM in assay [2].

In the case of `CNCCCCn1c2cc(OC)ccc2c2ccnc(C)c21`, the IC50 in assay [1] is above 10 µM; in assay [2] it was 0.34 µM.

`Cc1nccc2c1[nH]c1cc(OCCCCN)ccc12`: the inhibition entry in assay [4] was “inactive”.

Consider `Cc1nccc2c3ccc(O)cc3n(CCCCN)c12`, for which the IC50 in assay [1] is above 10 µM; in assay [2], 0.16 µM.

Take `Cc1nccc2c1[nH]c1cc(OCCCN)ccc12`: the inhibition result in assay [4] is “inactive”.

As for `Cc1nccc2c3ccc(OC(C)(C)C)cc3n(CCCCN)c12`, the 50% inhibitory concentration (IC50) in assay [1] is above 10 µM; in assay [2], 4.6 µM.

`COc1cccc2c3ccnc(C)c3n(CCCCN)c12`: the IC50 in assay [1] was above 10 µM; in assay [2], 0.22 µM.

Take `COc1ccc2c3ccncc3n(CCCCN)c2c1`: the IC50 in assay [1] is above 10 µM; in assay [2], 0.3 µM.

The compound `COc1ccc2c(c1)[nH]c1c(C)nccc12` [HARMINE] had a half-inhibitory concentration (IC50) in assay [3] of 0.69 µM.

Usually IC50 stands for the midpoint of a concentration-inhibition curve. Lower therefore signals higher potency.
